According to patent US20260053811A1, “METHODS OF TREATING HYPERTENSION IN OBESE SUBJECTS” (Mineralys Therapeutics, Inc., priority 2022, published 2026):
Where two headings read alike, the source gives them in different places.

Assay: Pharmacokinetics (plasma Cmax, AUC, Tmax, t1/2, trough concentrations)
Type: in vivo, human
Conditions: for concentration at 56 day / AUC(0-t) / Cmax / concentration at 7 day / concentration at 28 day / Tmax: human, plasma, oral; for concentration at 56 day: Day 56; for concentration at 7 day: Day 7; for Tmax: read-out: Tmax, Median
Source text: Pharmacokinetic endpoints of this study are PK parameters, including, of area under the plasma concentration versus time curve (AUC), maximum plasma concentration (Cmax), time to maximum concentration (Tmax), and half-life (t1/2) will be summarized descriptively for Randomization (baseline) and Study Weeks 1, 4, and 8
PK/PD Analysis Set includes all subjects in the SAF who have sufficient data available for the analysis of pharmacokinetic and pharmacodynamic measurements. In the analyses based on PKPD, subjects will be analyzed according to the actual treatment received.

[1] = 25 mg, 25 mg BID, read-out: Trough Plasma Concentration, Mean (SD)
[2] = 50 mg, 50 mg QD, read-out: Trough Plasma Concentration, Mean (SD)
[3] = 100 mg, 100 mg QD Part 1, read-out: Trough Plasma Concentration, Mean (SD)
[4] = 100 mg, 100 mg QD Part 1, read-out: Trough Plasma Concentration, Median
[5] = 100 mg, 100 mg QD Part 2, read-out: Trough Plasma Concentration, Mean (SD)
[6] = 100 mg, 100 mg QD Part 2, read-out: Trough Plasma Concentration, Median
[7] = steady state Day 28, 12.5 mg BID

## CC(=O)N[C@H]1CC[C@H](NC(=O)CN2CCN(c3nncc(-c4ccc(C)cc4)n3)CC2)CC1 [Compound A HBr]
12.5 mg, 12.5 mg BID, read-out: Trough Plasma Concentration, Mean (SD)
  concentration at 56 day: 40.4 ng/mL
12.5 mg, 12.5 mg BID, read-out: Trough Plasma Concentration, Median
  concentration at 56 day: 21.6 ng/mL
12.5 mg, 12.5 mg QD, read-out: Trough Plasma Concentration, Geometric Mean
  concentration at 56 day: 22.1 ng/mL
12.5 mg, 12.5 mg QD, read-out: Trough Plasma Concentration, Mean (SD)
  concentration at 56 day: 39.9 ng/mL
12.5 mg, 12.5 mg QD, read-out: Trough Plasma Concentration, Median
  concentration at 56 day: 7.6 ng/mL
12.5 mg, steady state Day 28, 12.5 mg BID, read-out: AUC0-24, Geo Mean
  AUC(0-t): 940 ng·h/mL
12.5 mg, steady state Day 28, 12.5 mg BID, read-out: AUC0-24, Mean (SD)
  AUC(0-t): 992 ng·h/mL
12.5 mg, steady state Day 28, 12.5 mg BID, read-out: AUC0-24, Median
  AUC(0-t): 922 ng·h/mL
12.5 mg, steady state Day 28, 12.5 mg BID, read-out: Cmax, Median
  Cmax: 137 ng/mL
12.5 mg, steady state Day 28, 12.5 mg QD, read-out: AUC0-24, Geo Mean
  AUC(0-t): 726 ng·h/mL
12.5 mg, steady state Day 28, 12.5 mg QD, read-out: AUC0-24, Mean (SD)
  AUC(0-t): 1020 ng·h/mL
12.5 mg, steady state Day 28, 12.5 mg QD, read-out: AUC0-24, Median
  AUC(0-t): 498 ng·h/mL
12.5 mg, steady state Day 28, 12.5 mg QD, read-out: Cmax, Geo Mean
  Cmax: 120 ng/mL
12.5 mg, steady state Day 28, 12.5 mg QD, read-out: Cmax, Mean (SD)
  Cmax: 153 ng/mL
12.5 mg, steady state Day 28, 12.5 mg QD, read-out: Cmax, Median
  Cmax: 94.9 ng/mL
[1]
  concentration at 7 day: 94.2 ng/mL
  concentration at 56 day: 104 ng/mL
25 mg, Day 28, 25 mg BID, read-out: Trough Plasma Concentration, Geo Mean
  concentration at 28 day: 62.1 ng/mL
25 mg, Day 28, 25 mg BID, read-out: Trough Plasma Concentration, Mean (SD)
  concentration at 28 day: 109 ng/mL
25 mg, Day 28, 25 mg BID, read-out: Trough Plasma Concentration, Median
  concentration at 28 day: 56.3 ng/mL
25 mg, 25 mg BID, read-out: Trough Plasma Concentration, Geometric Mean
  concentration at 56 day: 46 ng/mL
25 mg, 25 mg BID, read-out: Trough Plasma Concentration, Median
  concentration at 56 day: 32.3 ng/mL
25 mg, steady state Day 28, 25 mg BID, read-out: AUC0-24, Geo Mean
  AUC(0-t): 1640 ng·h/mL
25 mg, steady state Day 28, 25 mg BID, read-out: AUC0-24, Mean (SD)
  AUC(0-t): 1760 ng·h/mL
25 mg, steady state Day 28, 25 mg BID, read-out: AUC0-24, Median
  AUC(0-t): 1670 ng·h/mL
25 mg, steady state Day 28, 25 mg BID, read-out: Cmax, Geo Mean
  Cmax: 325 ng/mL
25 mg, steady state Day 28, 25 mg BID, read-out: Cmax, Median
  Cmax: 335 ng/mL
[2]
  concentration at 7 day: 93.1 ng/mL
  concentration at 56 day: 155 ng/mL
50 mg, Day 28, 50 mg QD, read-out: Trough Plasma Concentration, Geo Mean
  concentration at 28 day: 46.8 ng/mL
50 mg, Day 28, 50 mg QD, read-out: Trough Plasma Concentration, Mean (SD)
  concentration at 28 day: 87.4 ng/mL
50 mg, Day 28, 50 mg QD, read-out: Trough Plasma Concentration, Median
  concentration at 28 day: 20.9 ng/mL
50 mg, 50 mg QD, read-out: Trough Plasma Concentration, Geometric Mean
  concentration at 56 day: 38.1 ng/mL
50 mg, 50 mg QD, read-out: Trough Plasma Concentration, Median
  concentration at 56 day: 18 ng/mL
50 mg, steady state Day 28, 50 mg QD, read-out: AUC0-24, Geo Mean
  AUC(0-t): 3230 ng·h/mL
50 mg, steady state Day 28, 50 mg QD, read-out: AUC0-24, Mean (SD)
  AUC(0-t): 3390 ng·h/mL
50 mg, steady state Day 28, 50 mg QD, read-out: AUC0-24, Median
  AUC(0-t): 3320 ng·h/mL
50 mg, steady state Day 28, 50 mg QD, read-out: Cmax, Geo Mean
  Cmax: 477 ng/mL
50 mg, steady state Day 28, 50 mg QD, read-out: Cmax, Mean (SD)
  Cmax: 518 ng/mL
50 mg, steady state Day 28, 50 mg QD, read-out: Cmax, Median
  Cmax: 488 ng/mL
100 mg, 100 mg QD, Cohort 1, Day 28, read-out: Steady-state AUC0-24
  AUC(0-t): 14900 ng·h/mL
100 mg, 100 mg QD, Cohort 1, Day 28, read-out: Steady-state Cmax
  Cmax: 1620 ng/mL
100 mg, 100 mg QD, Cohort 2, Day 28, read-out: Steady-state AUC0-24
  AUC(0-t): 7480 ng·h/mL
100 mg, 100 mg QD, Cohort 2, Day 28, read-out: Steady-state Cmax
  Cmax: 1360 ng/mL
100 mg, 100 mg QD, Day 28, read-out: Steady-state AUC0-24, mean of Cohort 1 and Cohort 2
  AUC(0-t): ~11200 ng·h/mL
100 mg, 100 mg QD, Day 28, read-out: Steady-state Cmax, mean of Cohort 1 and Cohort 2
  Cmax: ~1490 ng/mL
[3]
  concentration at 7 day: 299 ng/mL
  concentration at 56 day: 258 ng/mL
[4]
  concentration at 7 day: 28.2 ng/mL
  concentration at 56 day: 30.4 ng/mL
[5]
  concentration at 7 day: 151 ng/mL
  concentration at 56 day: 23.2 ng/mL
[6]
  concentration at 7 day: 29.8 ng/mL
  concentration at 56 day: 20 ng/mL
100 mg, Day 28, 100 mg QD Part 1, read-out: Trough Plasma Concentration, Geo Mean
  concentration at 28 day: 50.7 ng/mL
100 mg, Day 28, 100 mg QD Part 1, read-out: Trough Plasma Concentration, Mean (SD)
  concentration at 28 day: 303 ng/mL
100 mg, Day 28, 100 mg QD Part 1, read-out: Trough Plasma Concentration, Median
  concentration at 28 day: 38.6 ng/mL
100 mg, Day 28, 100 mg QD Part 2, read-out: Trough Plasma Concentration, Geo Mean
  concentration at 28 day: 12.9 ng/mL
100 mg, Day 28, 100 mg QD Part 2, read-out: Trough Plasma Concentration, Mean (SD)
  concentration at 28 day: 26.4 ng/mL
100 mg, Day 28, 100 mg QD Part 2, read-out: Trough Plasma Concentration, Median
  concentration at 28 day: 19.9 ng/mL
100 mg, 100 mg QD Part 1, read-out: Trough Plasma Concentration, Geometric Mean
  concentration at 56 day: 72.1 ng/mL
100 mg, 100 mg QD Part 2, read-out: Trough Plasma Concentration, Geometric Mean
  concentration at 56 day: 20.3 ng/mL
100 mg, steady state Day 28, 100 mg QD Part 1, read-out: AUC0-24, Geo Mean
  AUC(0-t): 10400 ng·h/mL
100 mg, steady state Day 28, 100 mg QD Part 1, read-out: AUC0-24, Mean (SD)
  AUC(0-t): 14900 ng·h/mL
100 mg, steady state Day 28, 100 mg QD Part 1, read-out: AUC0-24, Median
  AUC(0-t): 15000 ng·h/mL
100 mg, steady state Day 28, 100 mg QD Part 1, read-out: Cmax, Geo Mean
  Cmax: 1370 ng/mL
100 mg, steady state Day 28, 100 mg QD Part 1, read-out: Cmax, Mean (SD)
  Cmax: 1620 ng/mL
100 mg, steady state Day 28, 100 mg QD Part 1, read-out: Cmax, Median
  Cmax: 1590 ng/mL
100 mg, steady state Day 28, 100 mg QD Part 2, read-out: AUC0-24, Geo Mean
  AUC(0-t): 6920 ng·h/mL
100 mg, steady state Day 28, 100 mg QD Part 2, read-out: AUC0-24, Mean (SD)
  AUC(0-t): 7480 ng·h/mL
100 mg, steady state Day 28, 100 mg QD Part 2, read-out: AUC0-24, Median
  AUC(0-t): 7090 ng·h/mL
100 mg, steady state Day 28, 100 mg QD Part 2, read-out: Cmax, Geo Mean
  Cmax: 1000 ng/mL
100 mg, steady state Day 28, 100 mg QD Part 2, read-out: Cmax, Mean (SD)
  Cmax: 1360 ng/mL
100 mg, steady state Day 28, 100 mg QD Part 2, read-out: Cmax, Median
  Cmax: 1250 ng/mL
Steady state Day 28, 12.5 mg QD
  Tmax: 1.08 h
Steady state Day 28, 50 mg QD
  Tmax: 2.01 h
[7]
  Cmax, Geo Mean: 140 ng/mL
  Cmax, Mean (SD): 142 (28.3) ng/ml
Steady state Day 28, 25 mg BID
  Cmax, Mean (SD): 361 (175) ng/ml
Steady state Day 28, 100 mg QD Part 1
  Tmax, Median: 1.02 h
Steady state Day 28, 100 mg QD Part 2
  Tmax, Median: 1 h
